Measured values taken from EP4725957A1, “GROUP OF CYCLIC ALKALINE LIPOPEPTIDE COMPOUNDS, AND PREPARATION METHOD THEREFOR AND USE THEREOF” (Institute of Medicinal Biotechnology, Chinese Academy of …, priority 2023, dated 2024).
In brackets after ≈: the same amount, converted by molar mass. Bridge positions count the residues as written; N and C are the ends. Square brackets hold non-standard residues; d marks the D form. Peptide text beside a SMILES is read from it. * marks the point of attachment. Heptanoyl(6-Me) = CC(C)CCCCC(=O)*; dOrn = NCCC[C@@H](N)C(=O)O; Nonanoyl = CCCCCCCCC(=O)*; X1 = CC[C@H](C)CCCCC(=O)*; dDab = NCC[C@@H](N)C(=O)O; Heptanoyl = CCCCCCC(=O)*; Octanoyl = CCCCCCCC(=O)*; Orn = NCCC[C@H](N)C(=O)O; Dab = NCC[C@H](N)C(=O)O; Dap = NC[C@H](N)C(=O)O

Assays:
Format in all cases: cell-based
[1] = Nephrotoxicity assay: in vitro cytotoxicity of HK-2 cells by CCK-8 assay; conditions: human, HK-2 cells (human renal), 72 h incubation with drug-containing medium
Method: In vitro cytotoxicity detection of HK-2 cells was performed by the CCK-8 assay.
The culture medium for human renal HK-2 cells was a complete RPMI-1640 medium (Invitrogen) supplemented with 10% fetal bovine serum (FBS, Gibco). The cryopreservation solution was composed of 90% FBS and 10% dimethyl sulfoxide (DMSO), and the cells were preserved long-term in liquid nitrogen. Cells were cultured in a sterile incubator with a humidified atmosphere containing 5% CO2 at 37°C. When the cell density reached 70%-80%, cell digestion and subculture were conducted. The cyclic lipopeptide compounds prepared in Examples 1-120 were weighed and dissolved in sterile water to prepare a mother solution with a concentration of 1 mg/mL. Drug-containing culture media were then formulated, with the final concentrations set as 500, 250, 200, 100, 50, 25, and 12.5 µg/mL, respectively. Cells were adjusted to a density of 5 × 10^4 cells/mL and seeded into 96-well plates, with 100 µL of cell suspension added to each well. After stable incubation for 24 h, the original medium was replaced with the prepared drug-containing medium, and the plates were incubated in the incubator for an additional 72 h. The medium was gently aspirated, and 100 µL of blank medium containing 10% CCK-8 was added to each well. After incubation in the incubator for 3 h, the optical density (OD) values at 450 nm were measured using a BIOTEK microplate reader. The experiment was repeated three times. For each replicate, polymyxin B was set as the positive drug, and a drug-free blank group was established as the control. The cell viability (%) was calculated by the formula: Cell viability (%) = [(OD of drug-treated group - OD of zero-setting) / (OD of drug-free group - OD of zero-setting)] × 100%. The half-maximal inhibitory concentration (IC50) values were calculated through logarithmic regression analysis.
The cells used for the nephrotoxicity assay were obtained from the ATCC ( American Type Culture Collection). The Cell Counting Kit-8 (CCK-8) used in the assay was supplied by Beyotime Biotechnology Co., Ltd.

[2] = tested on: Escherichia coli ATCC BAA-2523; conditions: ATCC BAA-2523
Method: (§1) The minimal inhibitory concentration (MIC) was determined by the broth microdilution method according to the recommended procedures of the Clinical and Laboratory Standards Institute (CLSI).
(§2) An appropriate amount of the cyclic lipopeptide compounds prepared in Examples 1-120 and the reference standards were weighed and dissolved in sterile pure water. An appropriate volume of the mother solution was subjected to ten-fold dilution with sterile Mueller-Hinton (MH) broth to a concentration of 0.256 mg/mL. Half of the drug solution was aliquoted into 96-well reagent reservoirs, while the other half was subjected to two-fold serial dilution with sterile MH broth before being transferred into deep-well reagent reservoirs. The above steps were repeated, so that the drug concentrations in the reagent reservoirs were adjusted to 128, 64, 32, 16, 8, 4, 2, 1, 0.5, 0.25, 0.125 and 0.06 mg/L in sequence, and all solutions were prepared and used immediately. Several colonies were picked from agar plates cultured for 18-24 h and directly suspended in sterile normal saline, and the concentration of the bacterial suspension was adjusted to 0.5 McFarland units. The calibrated bacterial suspension was diluted with MH broth to a concentration of (4-8) × 10^5 colony-forming units per milliliter (CFU/mL) and prepared and used immediately. A volume of 100 µL of the aforementioned compounds of the present disclosure (e.g., the compounds prepared in the examples) and reference solutions at different concentrations was separately pipetted into wells 1 to 12 of sterile 96-well polystyrene plates, and an additional 100 µL of the aforementioned inoculum was added to each well. The final concentrations of the samples in the wells were adjusted to 64, 32, 16, 8, 4, 2, 1, 0.5, 0.25, 0.125, 0.06 and 0.03 mg/L, respectively, and the final concentration of the inoculum in each well was (2-4) × 10^5 CFU/mL. Additional growth control wells were set up, each containing 100 µL of the inoculum and 100 µL of sterile MH broth. The test substances and inocula in all wells were mixed thoroughly and then sealed. The inoculated 96-well plates were incubated in an incubator at 35-37°C for 16-20 h.
(§3) The strains used for the antibacterial activity assay were obtained from the American Type Culture Collection (ATCC) and clinical isolates.
(§4) The strains employed for the antibacterial activity assay included Escherichia coli ATCC BAA-2523, ATCC BAA-2340 (KPC), Klebsiella pneumoniae KPN+19-15, ATCC BAA-1705 (KPC), Pseudomonas aeruginosa PAE19-3, ATCC 27853, Acinetobacter baumannii ABA19-1, and NCTC 13304 (OXA-27).

[3] = tested on: Klebsiella pneumoniae KPN+19-15; conditions: KPN+19-15
Method: as §1, §2, §3, §4

[4] = tested on: Escherichia coli ATCC BAA-2340 (KPC); conditions: ATCC BAA-2340
Method: as §1, §2, §3, §4

[5] = tested on: Pseudomonas aeruginosa PAE19-3; conditions: PAE19-3
Method: as §1, §2, §3, §4

[6] = tested on: Pseudomonas aeruginosa ATCC 27853; conditions: ATCC 27853
Method: as §1, §2, §3, §4

[7] = tested on: Acinetobacter baumannii ABA19-1; conditions: ABA19-1
Method: as §1, §2, §3, §4

[8] = tested on: Acinetobacter baumannii NCTC 13304 (OXA-27); conditions: NCTC 13304
Method: as §1, §2, §3, §4

[9] = tested on: Klebsiella pneumoniae ATCC BAA-1705 (KPC); conditions: ATCC BAA-1705
Method: as §1, §2, §3, §4

SMILES | IC50 at 72 h [1] [µg/mL] | MIC [2] [µg/mL] | MIC [3] [µg/mL] | MIC [4] [µg/mL] | MIC [5] [µg/mL] | MIC [6] [µg/mL] | MIC [7] [µg/mL] | MIC [8] [µg/mL] | MIC [9] [µg/mL]
CCCCCCCCC(=O)N[C@@H](CN)C(=O)N[C@H](C(=O)N[C@H](CCN)C(=O)N[C@H]1CCNC(=O)[C@H]([C@@H](C)O)NC(=O)[C@H](CCN)NC(=O)[C@H](CCN)NC(=O)[C@H](CC(C)C)NC(=O)[C@@H](Cc2ccccc2)NC(=O)[C@H](CCN)NC1=O)[C@@H](C)O [Compound 95, Nonanoyl-Dap-Thr-D-Dab-ring(4-10)[Dab-Dab-D-Phe-Leu-Dab-Dab-Thr]] (Nonanoyl-[Dap]T[dDab][Dab][Dab][dF]L[Dab][Dab]T; lactam 4-C) | 113 ± 10.3 (≈ 94.8 µM) | 0.125 (≈ 0.105 µM) | 0.06 (≈ 0.0504 µM) | 0.125 (≈ 0.105 µM) | 1 (≈ 0.841 µM) | 1 (≈ 0.841 µM) | 0.06 (≈ 0.0504 µM) | 0.06 (≈ 0.0504 µM) | 0.06 (≈ 0.0504 µM)
CCCCCCCC(=O)N[C@@H](CN)C(=O)N[C@H](C(=O)N[C@H](CO)C(=O)N[C@H]1CCNC(=O)[C@H]([C@@H](C)O)NC(=O)[C@H](CCN)NC(=O)[C@H](CCN)NC(=O)[C@H]([C@@H](C)O)NC(=O)[C@@H](Cc2ccccc2)NC(=O)[C@H](CCN)NC1=O)[C@@H](C)O [Compound 53, Octanoyl-Dap-Thr-D-Ser-ring(4-10)[Dab-Dab-D-Phe-Thr-Dab-Dab-Thr]] (Octanoyl-[Dap]T[dS][Dab][Dab][dF]T[Dab][Dab]T; lactam 4-C) | > 500 | ≤0.03 | 0.5 (≈ 0.435 µM) | ≤0.03 | 4 (≈ 3.48 µM) | 64 (≈ 55.6 µM) | 0.25 (≈ 0.217 µM) | 0.25 (≈ 0.217 µM) | 0.25 (≈ 0.217 µM)
CC(C)CCCCC(=O)N[C@@H](CN)C(=O)N[C@H](C(=O)N[C@H](CCN)C(=O)N[C@H]1CCNC(=O)[C@H]([C@@H](C)O)NC(=O)[C@H](CCN)NC(=O)[C@H](CCN)NC(=O)[C@H](CC(C)C)NC(=O)[C@@H](Cc2ccccc2)NC(=O)[C@H](CCN)NC1=O)[C@@H](C)O [Compound 92, 6-methylheptanoyl-Dap-Thr-D-Dab-ring(4-10)[Dab-Dab-D-Phe-Leu-Dab-Dab-Thr]] ({Heptanoyl(6-Me)}-[Dap]T[dDab][Dab][Dab][dF]L[Dab][Dab]T; lactam 4-C) | 228 ± 18.7 (≈ 194 µM) | 0.03 (≈ 0.0255 µM) | 0.03 (≈ 0.0255 µM) | 0.03 (≈ 0.0255 µM) | 0.5 (≈ 0.425 µM) | 0.5 (≈ 0.425 µM) | 0.03 (≈ 0.0255 µM) | 0.03 (≈ 0.0255 µM) | 0.03 (≈ 0.0255 µM)
CCCCCCCC(=O)N[C@@H](CN)C(=O)N[C@H](C(=O)N[C@H](CCN)C(=O)N[C@H]1CCNC(=O)[C@H]([C@@H](C)O)NC(=O)[C@H](CCN)NC(=O)[C@H](CCN)NC(=O)[C@H](CC(C)C)NC(=O)[C@@H](CC(C)C)NC(=O)[C@H](CCN)NC1=O)[C@@H](C)O [Compound 98, Octanoyl-Dap-Thr-D-Dab-ring(4-10)[Dab-Dab-D-Leu-Leu-Dab-Dab-Thr]] (Octanoyl-[Dap]T[dDab][Dab][Dab][dL]L[Dab][Dab]T; lactam 4-C) | 238 ± 9.9 (≈ 209 µM) | 0.03 (≈ 0.0263 µM) | 0.03 (≈ 0.0263 µM) | 0.03 (≈ 0.0263 µM) | 0.5 (≈ 0.438 µM) | 0.5 (≈ 0.438 µM) | 0.03 (≈ 0.0263 µM) | 0.03 (≈ 0.0263 µM) | 0.03 (≈ 0.0263 µM)
CCCCCCC(=O)N[C@@H](CCN)C(=O)N[C@H](C(=O)N[C@H](CCCN)C(=O)N[C@H]1CCNC(=O)[C@H]([C@@H](C)O)NC(=O)[C@H](CCN)NC(=O)[C@H](CCN)NC(=O)[C@H](CC(C)C)NC(=O)[C@@H](Cc2ccccc2)NC(=O)[C@H](CCN)NC1=O)[C@@H](C)O [Compound 44, Heptanoyl-Dab-Thr-D-Orn-ring(4-10)[Dab-Dab-D-Phe-Leu-Dab-Dab-Thr]] (Heptanoyl-[Dab]T[dOrn][Dab][Dab][dF]L[Dab][Dab]T; lactam 4-C) | 308 ± 9.7 (≈ 259 µM) | 0.06 (≈ 0.0504 µM) | 0.125 (≈ 0.105 µM) | 0.06 (≈ 0.0504 µM) | 2 (≈ 1.68 µM) | 0.5 (≈ 0.42 µM) | 0.125 (≈ 0.105 µM) | 0.06 (≈ 0.0504 µM) | 0.06 (≈ 0.0504 µM)
CC[C@H](C)CCCCC(=O)N[C@@H](CN)C(=O)N[C@H](C(=O)N[C@H](CCN)C(=O)N[C@H]1CCNC(=O)[C@H]([C@@H](C)O)NC(=O)[C@H](CCN)NC(=O)[C@H](CCN)NC(=O)[C@H](CC(C)C)NC(=O)[C@@H](CC(C)C)NC(=O)[C@H](CCN)NC1=O)[C@@H](C)O [Compound 96, (S)-6-methyloctanoyl-Dap-Thr-D-Dab-ring(4-10)[Dab-Dab-D-Leu-Leu-Dab-Dab-Thr]] (X1-[Dap]T[dDab][Dab][Dab][dL]L[Dab][Dab]T; lactam 4-C) | 207 ± 13.2 (≈ 179 µM) | 0.03 (≈ 0.026 µM) | 0.03 (≈ 0.026 µM) | 0.03 (≈ 0.026 µM) | 0.5 (≈ 0.433 µM) | 0.5 (≈ 0.433 µM) | 0.03 (≈ 0.026 µM) | 0.03 (≈ 0.026 µM) | 0.03 (≈ 0.026 µM)
CC[C@H](C)CCCCC(=O)N[C@@H](CCCN)C(=O)N[C@H](C(=O)N[C@H](CO)C(=O)N[C@H]1CCNC(=O)[C@H]([C@@H](C)O)NC(=O)[C@H](CCN)NC(=O)[C@H](CCN)NC(=O)[C@H]([C@@H](C)O)NC(=O)[C@@H](Cc2ccccc2)NC(=O)[C@H](CCN)NC1=O)[C@@H](C)O [Compound 56, (S)-6-methyloctanoyl-Orn-Thr-D-Ser-ring(4-10)[Dab-Dab-D-Phe-Thr-Dab-Dab-Thr]] (X1-[Orn]T[dS][Dab][Dab][dF]T[Dab][Dab]T; lactam 4-C) | > 500 | 0.125 (≈ 0.105 µM) | 0.5 (≈ 0.419 µM) | 0.125 (≈ 0.105 µM) | 4 (≈ 3.35 µM) | 64 (≈ 53.7 µM) | 0.25 (≈ 0.21 µM) | 0.25 (≈ 0.21 µM) | 0.25 (≈ 0.21 µM)
CCCCCCC(=O)N[C@@H](CCN)C(=O)N[C@H](C(=O)N[C@H](CO)C(=O)N[C@H]1CCNC(=O)[C@H]([C@@H](C)O)NC(=O)[C@H](CCCN)NC(=O)[C@H](CCN)NC(=O)[C@H]([C@@H](C)O)NC(=O)[C@@H](Cc2ccccc2)NC(=O)[C@H](CCN)NC1=O)[C@@H](C)O [Compound 89, Heptanoyl-Dab-Thr-D-Ser-ring(4-10)[Dab-Dab-D-Phe-Thr-Dab-Orn-Thr]] (Heptanoyl-[Dab]T[dS][Dab][Dab][dF]T[Dab][Orn]T; lactam 4-C) | > 500 | 0.125 (≈ 0.107 µM) | 0.5 (≈ 0.429 µM) | 0.125 (≈ 0.107 µM) | 64 (≈ 55 µM) | >64 | 0.06 (≈ 0.0515 µM) | 0.03 (≈ 0.0258 µM) | 0.25 (≈ 0.215 µM)
